These results are taken from patent publication US12157741B2, “Macrocyclic inhibitors of DYRK1A” (DANA-FARBER CANCER INSTITUTE, INC., priority 2018, dated 2024).

The target of assay [1] is various enzymes (Homo sapiens, UniProt Q13705). The following applies: ACVR2B; 1 uM.
Experimental: (§1) Ambit profiling from Eurofins (formerly Discoverx) was conducted in accordance with the manufacturer's instructions.
Assay [2] deals with various enzymes (Homo sapiens, UniProt Q16539). To be noted: p38-alpha; 1 uM.
Experimental: as §1
Assay [3] concerns the target various enzymes (Homo sapiens, UniProt P19525). To be noted: PRKR; 1 uM.
Experimental: as §1
The target in assay [4] is T1, various enzymes (Homo sapiens, UniProt Q12852).
T1 sequence (Q12852 1-859): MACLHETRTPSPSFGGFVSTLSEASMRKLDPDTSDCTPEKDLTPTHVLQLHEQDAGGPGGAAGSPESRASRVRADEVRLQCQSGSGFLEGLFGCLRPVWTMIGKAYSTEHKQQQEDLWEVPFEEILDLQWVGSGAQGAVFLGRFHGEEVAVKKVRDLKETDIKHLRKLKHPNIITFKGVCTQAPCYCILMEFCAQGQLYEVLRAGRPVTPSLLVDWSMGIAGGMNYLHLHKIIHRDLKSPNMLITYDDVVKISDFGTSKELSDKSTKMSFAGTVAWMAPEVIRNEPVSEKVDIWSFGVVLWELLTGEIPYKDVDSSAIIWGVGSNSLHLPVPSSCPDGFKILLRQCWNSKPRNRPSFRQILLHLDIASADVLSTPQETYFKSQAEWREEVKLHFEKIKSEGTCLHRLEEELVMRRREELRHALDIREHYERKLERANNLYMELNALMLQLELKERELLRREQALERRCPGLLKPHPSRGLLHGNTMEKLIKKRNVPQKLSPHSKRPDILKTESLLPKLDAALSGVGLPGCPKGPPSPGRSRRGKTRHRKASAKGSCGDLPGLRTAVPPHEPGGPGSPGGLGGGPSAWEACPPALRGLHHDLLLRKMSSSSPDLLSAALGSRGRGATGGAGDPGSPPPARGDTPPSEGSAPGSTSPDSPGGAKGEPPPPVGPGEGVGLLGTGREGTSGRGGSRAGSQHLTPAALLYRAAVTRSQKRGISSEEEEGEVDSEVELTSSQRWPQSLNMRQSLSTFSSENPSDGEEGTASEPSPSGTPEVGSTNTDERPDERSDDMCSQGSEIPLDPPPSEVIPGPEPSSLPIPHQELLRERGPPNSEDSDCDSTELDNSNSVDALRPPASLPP
To be noted: DLK; 1 uM.
Experimental: as §1

Assay [5] addresses T2, various enzymes (Homo sapiens, UniProt Q13043).
T2 sequence (Q13043 1-487): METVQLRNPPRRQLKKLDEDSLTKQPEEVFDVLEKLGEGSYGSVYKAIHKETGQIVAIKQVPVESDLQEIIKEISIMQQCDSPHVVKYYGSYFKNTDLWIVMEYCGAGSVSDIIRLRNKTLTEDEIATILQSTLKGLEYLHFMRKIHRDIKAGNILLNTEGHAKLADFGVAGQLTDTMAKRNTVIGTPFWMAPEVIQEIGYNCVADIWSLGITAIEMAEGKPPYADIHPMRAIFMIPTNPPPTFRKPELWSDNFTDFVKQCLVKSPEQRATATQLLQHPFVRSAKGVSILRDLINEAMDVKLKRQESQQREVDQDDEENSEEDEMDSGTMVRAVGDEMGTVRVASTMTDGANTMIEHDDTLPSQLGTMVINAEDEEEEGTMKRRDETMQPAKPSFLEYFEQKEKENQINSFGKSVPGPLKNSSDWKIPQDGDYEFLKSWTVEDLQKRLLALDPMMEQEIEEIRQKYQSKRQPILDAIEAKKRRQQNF
To be noted: MST1; 1 uM.
Experimental: as §1

For assay [6], the target named is T3, various enzymes (Homo sapiens, UniProt Q9NRM7).
T3 sequence (Q9NRM7 1-1088): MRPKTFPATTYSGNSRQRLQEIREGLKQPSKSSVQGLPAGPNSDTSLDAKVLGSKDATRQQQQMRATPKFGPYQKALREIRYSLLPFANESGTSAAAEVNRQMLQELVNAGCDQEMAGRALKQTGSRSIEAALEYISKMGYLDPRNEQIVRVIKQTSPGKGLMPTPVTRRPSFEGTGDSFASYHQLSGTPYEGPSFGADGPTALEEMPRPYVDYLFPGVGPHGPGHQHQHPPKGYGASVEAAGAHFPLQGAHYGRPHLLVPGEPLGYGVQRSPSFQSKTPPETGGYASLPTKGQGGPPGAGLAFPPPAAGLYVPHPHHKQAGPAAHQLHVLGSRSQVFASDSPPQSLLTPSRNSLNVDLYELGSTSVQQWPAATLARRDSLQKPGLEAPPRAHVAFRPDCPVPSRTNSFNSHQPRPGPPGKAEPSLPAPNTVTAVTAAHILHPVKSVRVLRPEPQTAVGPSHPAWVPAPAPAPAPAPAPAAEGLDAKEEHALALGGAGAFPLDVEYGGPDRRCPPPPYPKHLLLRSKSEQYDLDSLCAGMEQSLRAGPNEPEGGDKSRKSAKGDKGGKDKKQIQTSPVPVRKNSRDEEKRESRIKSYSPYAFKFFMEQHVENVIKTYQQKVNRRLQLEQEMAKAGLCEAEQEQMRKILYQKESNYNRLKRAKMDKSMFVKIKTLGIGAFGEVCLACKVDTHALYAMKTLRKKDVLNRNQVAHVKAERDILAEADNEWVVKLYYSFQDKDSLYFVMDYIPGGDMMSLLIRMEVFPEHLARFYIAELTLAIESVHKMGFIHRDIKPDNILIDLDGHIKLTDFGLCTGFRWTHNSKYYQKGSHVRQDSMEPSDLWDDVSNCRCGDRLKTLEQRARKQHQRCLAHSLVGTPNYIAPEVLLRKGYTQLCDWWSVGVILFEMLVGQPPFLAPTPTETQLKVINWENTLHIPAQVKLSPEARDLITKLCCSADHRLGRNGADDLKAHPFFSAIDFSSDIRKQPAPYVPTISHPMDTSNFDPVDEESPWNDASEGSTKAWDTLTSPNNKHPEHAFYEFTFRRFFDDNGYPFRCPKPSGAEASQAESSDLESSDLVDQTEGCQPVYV
The following applies: LATS2; 1 uM.
Experimental: as §1

Chain of various enzymes (Homo sapiens, UniProt Q16539) (Q16539 whole entry): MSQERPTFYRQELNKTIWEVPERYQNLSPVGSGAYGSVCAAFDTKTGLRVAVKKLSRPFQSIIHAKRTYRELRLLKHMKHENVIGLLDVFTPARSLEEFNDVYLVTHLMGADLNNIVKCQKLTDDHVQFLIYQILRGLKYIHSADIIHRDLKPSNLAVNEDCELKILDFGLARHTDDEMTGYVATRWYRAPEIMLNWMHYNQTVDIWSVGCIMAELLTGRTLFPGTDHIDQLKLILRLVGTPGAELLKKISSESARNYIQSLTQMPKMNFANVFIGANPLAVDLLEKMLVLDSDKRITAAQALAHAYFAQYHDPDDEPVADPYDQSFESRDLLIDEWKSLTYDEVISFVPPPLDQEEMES
Chain of various enzymes (Homo sapiens, UniProt P19525) (P19525 whole entry): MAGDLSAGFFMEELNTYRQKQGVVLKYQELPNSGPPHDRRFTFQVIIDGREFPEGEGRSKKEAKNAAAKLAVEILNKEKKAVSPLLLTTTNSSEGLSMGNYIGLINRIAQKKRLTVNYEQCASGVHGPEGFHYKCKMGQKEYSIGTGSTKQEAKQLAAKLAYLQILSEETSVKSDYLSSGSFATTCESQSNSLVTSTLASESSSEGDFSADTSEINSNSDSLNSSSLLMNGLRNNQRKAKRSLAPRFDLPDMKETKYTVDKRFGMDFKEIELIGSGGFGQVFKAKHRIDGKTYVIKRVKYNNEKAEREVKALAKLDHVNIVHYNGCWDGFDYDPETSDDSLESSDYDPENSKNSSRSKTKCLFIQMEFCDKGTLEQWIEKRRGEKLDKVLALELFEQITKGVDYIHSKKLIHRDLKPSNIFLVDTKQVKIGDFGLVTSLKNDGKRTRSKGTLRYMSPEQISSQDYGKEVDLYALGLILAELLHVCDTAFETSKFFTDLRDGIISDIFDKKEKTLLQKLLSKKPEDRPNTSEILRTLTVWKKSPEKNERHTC
Chain of various enzymes (Homo sapiens, UniProt Q13705) (Q13705 19-512): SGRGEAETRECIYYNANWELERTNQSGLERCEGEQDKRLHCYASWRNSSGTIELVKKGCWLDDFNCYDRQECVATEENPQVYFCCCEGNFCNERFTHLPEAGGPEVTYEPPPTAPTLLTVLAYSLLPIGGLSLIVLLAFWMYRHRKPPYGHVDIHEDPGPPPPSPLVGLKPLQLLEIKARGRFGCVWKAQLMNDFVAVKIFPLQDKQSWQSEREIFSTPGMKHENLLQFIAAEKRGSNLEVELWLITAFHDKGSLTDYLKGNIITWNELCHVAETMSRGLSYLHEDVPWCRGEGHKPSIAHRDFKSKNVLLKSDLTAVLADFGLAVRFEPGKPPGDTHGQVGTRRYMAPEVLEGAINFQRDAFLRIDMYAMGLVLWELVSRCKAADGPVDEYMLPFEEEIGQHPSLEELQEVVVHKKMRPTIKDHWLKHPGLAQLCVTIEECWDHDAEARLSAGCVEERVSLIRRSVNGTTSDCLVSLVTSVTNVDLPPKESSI

As to `CN1Cc2nn(C)cc2-c2cnc3[nH]cc(c3c2)-c2cnn(c2)CCCC1=O` [Compound 41, (Z)-31,5-dimethyl-11H,21H,31H-5-aza-2(3,5)-pyrrolo[2,3-b]pyridina-1(4,1),3(4,3)-dipyrazolacyclononaphan-6-one], the Ambit profiling on various enzymes [1] is recorded as 65; on various enzymes [2], 99; on various enzymes [3], 9.2; at various enzymes [4] it was 23; at various enzymes [5] it was 4.7; on various enzymes [6] it was 63.
In the case of `CN1Cc2nn(C)c(C#N)c2-c2cnc3[nH]cc(c3c2)-c2cn(nc2C(F)(F)F)CCCC1=O` [Compound 48, (Z)-31,5-dimethyl-6-oxo-13-(trifluoromethyl)-11H,21H,31H-5-aza-2(3,5)-pyrrolo[2,3-b]pyridina-1(4,1),3(4,3)-dipyrazolacyclononaphane-35-carbonitrile], the Ambit profiling is recorded as 98 on various enzymes [1]; 95 on various enzymes [2]; 100 on various enzymes [3]; 100 on various enzymes [4]; 100 at various enzymes [5]; 100 at various enzymes [6].
